Test results as given in a melting point compilation (Tetko et al.; mined from patent text by program, amines drawn as free bases though some values may be those of a salt).

| Structure (SMILES) | melting point [°C] |
| --- | --- |
| COc1ccc(C2=NN(Cc3ccncc3)C(=O)[C@H]3CC=CC[C@@H]23)cc1OC (relative stereo) | 121 to 124 |
| COc1cc(Br)ccc1Oc1ccccc1O | 107 to 109 |
| CC1(C)N=C(n2ccc(O)cc2=O)c2cc(Br)ccc2O1 | 171 to 172 |
| O=C(Nc1ccccc1)O[C@@H]1CN=C(c2ccc(Cl)c(Cl)c2)O[C@H]1c1ccccc1 (racemic) | 130 |
| CCOc1cc2c(cc1OC)C(c1ccc(NS(=O)(=O)c3ccc(C)cc3)cc1)=N[C@H]1CCN(C)C[C@@H]21 | 207 to 219 |
| Cc1nc2c3c(c(C(=O)N(C)C)cc2[nH]1)CCC1(Cc2ccccc2C1)N3 | 183 |
| O=C1Oc2ccccc2C1c1ccccc1 (stereo not given) | 109 to 111 |
| CC(C)c1nn(-c2ccc([N+](=O)[O-])cn2)cc1CCCO | 130 to 131 |
| Cc1noc(NS(=O)(=O)C23CSc4cccc(c42)OCO3)c1C (stereo not given) | 135 to 137 |
| Cc1ccc(OP(Oc2ccc(C)cc2C(C)(C)C)Oc2ccc(C)cc2C(C)(C)C)c(C(C)(C)C)c1 | 114 to 115 |
| C/C(Br)=C(\Br)c1cn(-c2c(Cl)cc(C(F)(F)F)cc2Cl)nc1C#N | 134 to 135 |
| C#Cc1ccc2c(c1)C=C(C(=O)O)C(C(F)(F)F)N2 (stereo not given) | 259 to 268 |
| CC(=O)Oc1ccc(C(=O)Cl)cc1 | 167 |
| CCCc1nc2c(N)nc3cc(Oc4cccc(NCC)c4)ccc3c2n1CC(C)C | 168 to 174 |
| COCOCC(=O)C1CCC2C3CCC4=CC(=O)CCC4(C)C3CCC12C (stereo not given) | 195 |
| CC(C)(C)c1ccc(NC(=O)c2ccc(C3(C)OCCCO3)cc2)cc1 | 148 to 149 |
| CCc1cccc(-n2ncc(C(=O)O)c2C(N)=O)c1 | 176 to 178 |
| COc1cc2c(cc1OC)C(Oc1ccccc1C#N)CN(C)C2 (stereo not given) | 147 to 148 |
| N#CCOc1cccc(CN2C(=O)c3cccc(NC(=O)c4ccc(Cl)s4)c3C2=O)c1 | 164 |
| CN(C)CCOCC1=Nc2cc(Cl)ccc2S(=O)(=O)N1 | 219 to 221 |
| COC(=O)c1cc2cc(OCc3ccccc3)ccc2n1CC(=O)N(C)CCc1ccccc1 | 155 to 156 |
| COc1cc2c(cc1OCc1ccccc1)CCN(Cc1ccc(C#N)cc1)C2 | 161 to 162 |
| Cc1csc2nc(-n3cccn3)nc(NCc3ccc4c(c3)OCO4)c12 | 210 |
| CCNC(=O)C[C@@H]1N=C(c2ccc(Cl)cc2)c2cc(OC)ccc2-n2c(C)nnc21 | > 140 |
| C=C1Cc2cc3c(cc2C(c2ccc(N(C(C)=O)C(C)=O)cc2)=NN1C(C)=O)OCO3 | 240 to 245 |

| Structure (SMILES) | melting point [°C] |
| --- | --- |
| CNC(=O)c1cccc(NC(=O)Cc2csc3ccccc23)c1 | 194 |
| CC(=O)OCCCN(C)CCN(C)C(=O)[C@@H]1CCCN1S(=O)(=O)c1ccc(Cl)c(COc2cccc3c(-n4ccnc4)cc(C)nc23)c1Cl | 75 |
| O=C1OC(C(O)CO)CCN1Cc1ccccc1 (stereo not given) | 100 to 102 |
| Fc1ccc2c(C3=CCN(CC4CCc5ccccc5O4)CC3)c[nH]c2c1 (stereo not given) | 160 to 161 |
| CN1CCN(c2ccc(N)cc2F)CC1 | 89 to 91 |
| CC(C)(SC(=S)c1ccccc1)c1ccc(Cl)cc1 | 77 to 78 |
| CC(C)(C)n1nnc(C(C=O)=C(c2ccc(F)cc2)c2ccc(F)cc2)n1 | 131 to 133 |
| CCN(CCOC)C(=O)c1cc(-c2ccccc2)c(=O)[nH]c1-c1c(Cl)cccc1C#N | 184 to 186 |
| Cc1cc(C#N)cc(C)c1OCCCCCc1cc(CO)no1 | 63 to 64 |
| Cc1nc(Br)n(COCc2ccccc2)c1Sc1ccccc1 | 55 |
| O=C(c1ccc([N+](=O)[O-])cc1[N+](=O)[O-])N1CCOCC1 | 159 to 161 |
| COc1ccc2c(c1)SC(C#N)=C(N)CO2 | 203 to 205 |
| Cc1cccc2[nH]c(=O)n(CCCN3CC=C(c4cccc(Cl)c4)CC3)c(=O)c12 | 180 to 183 |
| CC(C)(C)OC(=O)c1ccc(C#Cc2cnc3nc(NC(=O)C(C)(C)C)nc(O)c3c2)cc1 | > 250 |
| COc1ccc2c3c(oc2c1)CCC(C(=O)O)=C3 | 228 to 231 |
| CCCCC1=NOC(Cc2ccccc2)C(=O)N1 (stereo not given) | 82 to 85 |
| COC(=O)C(C(=O)OC)C(Cc1cc(Cl)ccc1N)c1ccc(OC)cc1 (stereo not given) | 114 to 116 |
| N=C(N)Nc1nc(CSCCNc2ncccc2C(=O)O)cs1 | 141 to 145 |
| CCCC(C(N)=O)n1cc(C)c(-c2ccccc2)n1 (stereo not given) | 116 to 118 |
| CCOC(C#CCN1CCC(NC(=O)c2ccccc2)CC1)OCC | 130 |
| COC(=O)C1=C(C)Nc2[nH]nc(-c3ccccc3)c2C1c1cccc([N+](=O)[O-])c1 (stereo not given) | 240 to 241 |
| CCCc1nc(C(O)CCC)c(C(N)=O)n1Cc1ccc(-c2ccccc2C(=O)O)cc1 (stereo not given) | 118 to 121 |
| CCS(=O)(=O)Nc1cc(-n2nc(C(F)F)n(C)c2=S)c(F)cc1C(N)=S | 183 |
| Cc1cc(Cl)cc2c1OCCCC2=O | 56 to 58 |
| CCN(CC)Cc1cc(NC(=O)Nc2ccc(Oc3cc(NC)ncn3)cc2)cc(C(F)(F)F)c1 | 68 to 70 |
